From patent US6057135A, “Process for manufacturing D-tagatose” (Kraft Foods, Inc., priority 1992, dated 2000)
One block for each compound: values may come before it.

Tests used:
L-arabinose isomerase [1] = biological target: T1, L-arabinose isomerase (Lactiplantibacillus pentosus, UniProt Q6UA74); assay: L-arabinose isomerase activity assay (cysteine-carbazole ketose determination), enzyme from Lactobacillus pentosus ATCC 8041; assay type: biochemical; details: for % Activity with activator (None = 100): metal ion activator, bioconversion of D-galactose; for Enzyme Activity: 10 minutes, 0.1 M L-arabinose or 0.2 M D-galactose as substrate
T1 construct: whole cells, sonicated cell-free extract or immobilized, from L-arabinose-induced culture
T1 sequence (Q6UA74 1-474): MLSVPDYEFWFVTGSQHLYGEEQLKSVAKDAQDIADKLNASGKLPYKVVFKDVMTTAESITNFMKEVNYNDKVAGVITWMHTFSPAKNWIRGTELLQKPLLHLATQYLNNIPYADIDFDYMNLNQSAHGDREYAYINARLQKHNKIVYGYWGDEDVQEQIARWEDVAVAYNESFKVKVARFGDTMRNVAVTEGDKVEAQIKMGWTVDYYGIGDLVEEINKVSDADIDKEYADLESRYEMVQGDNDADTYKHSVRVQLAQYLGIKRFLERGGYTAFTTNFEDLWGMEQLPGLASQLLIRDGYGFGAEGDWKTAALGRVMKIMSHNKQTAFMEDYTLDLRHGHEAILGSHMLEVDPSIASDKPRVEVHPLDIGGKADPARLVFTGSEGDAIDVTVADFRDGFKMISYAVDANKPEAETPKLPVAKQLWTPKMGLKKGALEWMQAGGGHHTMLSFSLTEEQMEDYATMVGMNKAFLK
Method: The activity of L-arabinose isomerase can be assayed based on the appearance of keto-pentose (L-ribulose) or keto-hexose (D-tagatose) after incubation in the presence of the substrate aldo-pentose (L-arabinose) or aldo-hexose (D-galactose), respectively. The keto-pentose or keto-hexose can be measured colorimetrically utilizing cysteine-carbazole sulfuric acid as a reagent. The cysteine-carbazole method is described in, Zacharias Dische, "Color Reaction of Ketoses with Carbazole and Sulfuric Acid", Methods in Carbohydrate Chemistry (1962) page 481 [132]. Samples should be analyzed in duplicate, utilizing one sample as a blank to correct for substances which may interfere with the calorimetric ketose determination.
For purposes of this specification, one unit of L-arabinose isomerase activity is defined as that amount of enzyme which is required to produce one micromole of L-ribulose or D-tagatose from the respective substrates, L-arabinose or D-galactose, following ten minutes of incubation under assay conditions.
Following 24 hours of propagation, the cell mass was harvested and washed with a phosphate or maleate buffer at pH 6.5. The L-arabinose isomerase was extracted from the harvested cells by sonication.
To 1.0 ml of the bioconversion reaction medium (using a dilution factor if needed) the following is added:
0.2 ml of cystein hydrochloride (1.5% in water);
6.0 ml 75% sulfuric acid (450 ml conc. sulfuric acid+190 ml water); and
0.2 ml of 0.12% alcohol solution of carbazole (0.12 gram carbazole in 100 ml 95% ethanol).
The test tubes are incubated for 10 minutes at 57° C. and optical density (O.D.) is read at 540. The D-galactose substrate is used as a blank for reference.
A series of bioconversions were conducted with varied parameters to determine optimum conditions for Lactobacillus pentosus L-arabinose isomerase.

L-arabinose isomerase [2] = biological target: T2, L-arabinose isomerase (Bacillus amyloliquefaciens, UniProt A0A9P1JJ98); assay: L-arabinose isomerase bioconversion of D-galactose to D-tagatose, enzyme from Bacillus amyloliquefaciens IFO 3022; assay type: biochemical; details: for D-TAGATOSE / O.D. (X - B): 1.67 M D-galactose, 60° C., 120 min.
T2 construct: crude enzyme
T2 sequence (A0A9P1JJ98 1-499): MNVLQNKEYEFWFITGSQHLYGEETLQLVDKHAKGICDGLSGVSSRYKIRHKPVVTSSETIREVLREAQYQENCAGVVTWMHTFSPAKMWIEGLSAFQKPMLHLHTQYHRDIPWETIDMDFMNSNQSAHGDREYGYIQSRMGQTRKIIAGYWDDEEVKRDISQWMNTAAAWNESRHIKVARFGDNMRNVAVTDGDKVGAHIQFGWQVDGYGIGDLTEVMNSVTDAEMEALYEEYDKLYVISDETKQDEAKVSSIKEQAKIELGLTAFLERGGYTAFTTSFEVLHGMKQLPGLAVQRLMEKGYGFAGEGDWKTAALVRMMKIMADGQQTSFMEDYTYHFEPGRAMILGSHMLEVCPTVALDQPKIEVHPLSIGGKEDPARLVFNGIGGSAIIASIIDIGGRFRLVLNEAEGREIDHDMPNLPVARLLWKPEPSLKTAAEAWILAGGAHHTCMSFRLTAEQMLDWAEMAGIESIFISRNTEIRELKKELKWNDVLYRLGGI
Method: Bacillus amyloliquefaciens (previously known as Bacillus subtilis, IFO 3022, was evaluated as a source of L-arabinose isomerase. Cells of the culture were propagated on the same medium as used in Example 1 in the presence of L-arabinose as a carbon source. Optimum pH, temperature, metal ion and metal ion concentration were evaluated as summarized below.
In the following tests, sample B was comprised of 0.8 ml. D-galactose and 0.2 ml. water and sample X was comprised of 0.8 ml. D-galactose an 0.2 ml. enzyme. The dilution factor for the optical density (O.D.) reading was 200×. (The cystein carbazole method was used for the D-tagatose assay.)

L-arabinose isomerase [3] = assay: L-arabinose isomerase bioconversion of D-galactose to D-tagatose, enzyme from Arthrobacter sp. ATCC 21920; assay type: biochemical; details: for D-TAGATOSE / O.D. (X - B): 1.67 M D-galactose, 60° C., 120 min.
Method: The cultures were screened based on cell propagation on medium #1 of Example 3 in the presence of L-arabinose as a carbon source.
Cells of Arthrobacter sp. ATCC 21920 were propagated on medium #1 of Example 3 in the presence of L-arabinose as a carbon source. Optimum pH, temperature, metal ion and metal ion concentration were evaluated on the cell extract containing L-arabinose isomerase as summarized below.
In the following tests, sample B was comprised of 0.8 ml. D-galactose and 0.2 ml. water and sample X was comprised of 0.8 ml. D-galactose and 0.2 ml. enzyme. The dilution factor for the optical density (O.D.) reading was 200×.

L-arabinose isomerase [4] = details: cited from earlier work
[5] = tested on: L-arabinose-L-ribulose-isomerase; details: Simpson, 1958; cited from earlier work
L-arabinose isomerase [6] = biological target: T3, L-arabinose isomerase (Mycolicibacterium smegmatis, UniProt Q9RHG2); details: Izumori et al., 1978; cited from earlier work
T3 construct: L-arabinose isomerases from Mycobacterium smegmatis induced by L-arabinose and D-galactose; host or cells: Mycobacterium smegmatis
T3 sequence (Q9RHG2 whole entry): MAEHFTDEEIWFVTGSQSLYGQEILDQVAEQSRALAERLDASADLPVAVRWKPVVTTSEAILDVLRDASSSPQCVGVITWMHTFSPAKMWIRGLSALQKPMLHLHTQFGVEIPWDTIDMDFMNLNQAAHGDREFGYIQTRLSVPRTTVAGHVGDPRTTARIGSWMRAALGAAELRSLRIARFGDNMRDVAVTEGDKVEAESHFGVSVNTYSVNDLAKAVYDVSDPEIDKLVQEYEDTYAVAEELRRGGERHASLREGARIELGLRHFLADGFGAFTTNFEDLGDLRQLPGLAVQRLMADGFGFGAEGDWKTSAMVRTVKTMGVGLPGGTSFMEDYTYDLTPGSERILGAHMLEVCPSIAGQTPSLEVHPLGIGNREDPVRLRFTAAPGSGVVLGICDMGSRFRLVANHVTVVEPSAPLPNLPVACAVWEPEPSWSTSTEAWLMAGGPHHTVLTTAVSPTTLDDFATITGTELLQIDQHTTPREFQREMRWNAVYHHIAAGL

[7] = at about 25° C.; cited from earlier work
[8] = 0.005 M metallic ion, O.D. 540, dilution 200×

% Activity with activator (None = 100) (L-arabinose isomerase [1]): 177%
D-TAGATOSE (L-arabinose isomerase [2]; 0.005 M metallic ion): 0.035 M
O.D. (X - B) (L-arabinose isomerase [2]; [8]): 0.7610
D-TAGATOSE (L-arabinose isomerase [2]; manganese ion 0.001 M): 0.036 M
O.D. (X - B) (L-arabinose isomerase [2]; manganese ion 0.001 M): 0.7723
D-TAGATOSE (L-arabinose isomerase [2]; manganese ion 0.003 M): 0.030 M
O.D. (X - B) (L-arabinose isomerase [2]; manganese ion 0.003 M): 0.6441
D-TAGATOSE (L-arabinose isomerase [2]; manganese ion 0.005 M): 0.031 M
O.D. (X - B) (L-arabinose isomerase [2]; manganese ion 0.005 M): 0.6815
D-TAGATOSE (L-arabinose isomerase [2]; manganese ion 0.007 M): 0.031 M
O.D. (X - B) (L-arabinose isomerase [2]; manganese ion 0.007 M): 0.6678
D-TAGATOSE (L-arabinose isomerase [2]; manganese ion 0.009 M): 0.030 M
O.D. (X - B) (L-arabinose isomerase [2]; manganese ion 0.009 M): 0.6591
D-TAGATOSE (L-arabinose isomerase [2]; manganese ion 0.011 M): 0.032 M
O.D. (X - B) (L-arabinose isomerase [2]; manganese ion 0.011 M): 0.7007
D-TAGATOSE (L-arabinose isomerase [2]; manganese ion 0.013 M): 0.032 M
O.D. (X - B) (L-arabinose isomerase [2]; manganese ion 0.013 M): 0.6851
D-TAGATOSE (L-arabinose isomerase [3]; 0.005 M metallic ion): 0.044 M
O.D. (X - B) (L-arabinose isomerase [3]; [8]): 0.9574
D-TAGATOSE (L-arabinose isomerase [3]; manganese ion 0.001 M): 0.041 M
O.D. (X - B) (L-arabinose isomerase [3]; manganese ion 0.001 M): 0.8919
D-TAGATOSE (L-arabinose isomerase [3]; manganese ion 0.003 M): 0.035 M
O.D. (X - B) (L-arabinose isomerase [3]; manganese ion 0.003 M): 0.7600
D-TAGATOSE (L-arabinose isomerase [3]; manganese ion 0.005 M): 0.040 M
O.D. (X - B) (L-arabinose isomerase [3]; manganese ion 0.005 M): 0.8848
D-TAGATOSE (L-arabinose isomerase [3]; manganese ion 0.007 M): 0.042 M
O.D. (X - B) (L-arabinose isomerase [3]; manganese ion 0.007 M): 0.9057
D-TAGATOSE (L-arabinose isomerase [3]; manganese ion 0.009 M): 0.051 M
O.D. (X - B) (L-arabinose isomerase [3]; manganese ion 0.009 M): 1.1175
D-TAGATOSE (L-arabinose isomerase [3]; manganese ion 0.011 M): 0.043 M
O.D. (X - B) (L-arabinose isomerase [3]; manganese ion 0.011 M): 0.9333
D-TAGATOSE (L-arabinose isomerase [3]; manganese ion 0.013 M): 0.049 M
O.D. (X - B) (L-arabinose isomerase [3]; manganese ion 0.013 M): 1.0753
Structure (SMILES): [Mn+2] [Manganese]

Structure (SMILES): [Ca] [Calcium]
% Activity with activator (None = 100) (L-arabinose isomerase [1]): 143%
D-TAGATOSE (L-arabinose isomerase [2]; 0.005 M metallic ion): 0.009 M
O.D. (X - B) (L-arabinose isomerase [2]; [8]): 0.1802
D-TAGATOSE (L-arabinose isomerase [3]; 0.005 M metallic ion): 0.033 M
O.D. (X - B) (L-arabinose isomerase [3]; [8]): 0.7107

% Activity with activator (None = 100) (L-arabinose isomerase [1]): 200%
% Activity over activator range (L-arabinose isomerase [1]; range 1 MM-10 MM): 123-250%
D-TAGATOSE (L-arabinose isomerase [2]; 0.005 M metallic ion): 0.020 M
O.D. (X - B) (L-arabinose isomerase [2]; [8]): 0.4438
D-TAGATOSE (L-arabinose isomerase [3]; 0.005 M metallic ion): 0.037 M
O.D. (X - B) (L-arabinose isomerase [3]; [8]): 0.8030
Structure (SMILES): [Fe+2] [Ferrous]

Structure (SMILES): [Fe+3] [Ferric]
D-TAGATOSE (L-arabinose isomerase [2]; 0.005 M metallic ion): 0.018 M
O.D. (X - B) (L-arabinose isomerase [2]; [8]): 0.3817
D-TAGATOSE (L-arabinose isomerase [3]; 0.005 M metallic ion): 0.037 M
O.D. (X - B) (L-arabinose isomerase [3]; [8]): 0.8003

Structure (SMILES): O=C[C@H](O)[C@@H](O)[C@@H](O)[C@H](O)CO [D-galactose]
Enzyme Activity (L-arabinose isomerase [1]; 35° C.): 0.07 u/ml.
Enzyme Activity (L-arabinose isomerase [1]; 60° C.): 0.90 u/ml.
Km (D-galactose), as % (L-arabinose isomerase [1]; crude enzyme, L. pentosus): 20%
total activity, Present Invention Data (L-arabinose isomerase [1]; substrate as labelled, propagation 24 hours, 37° C., pH 6.5, BYF 100 medium): 395 u/L.
activity (10 min.), Present Invention Data (L-arabinose isomerase [1]; substrate as labelled, propagation 24 hours, 37° C., pH 6.5, BYF 100 medium, per g cell mass): 45 u/g.
Km (D-galactose), as % (L-arabinose isomerase [2]; crude enzyme, B. amylo.): 12%
L-arabinose isomerase activity (L-arabinose isomerase [3]; D-galactose as a substrate, 10 min. incubation): 21 U/g/10 min.
Km (D-galactose), as % (L-arabinose isomerase [3]; crude enzyme, Arthrobacter): 15%
activity of L-arabinose isomerase on the sugar (L-arabinose isomerase [4]; Nakamatu, Biochim. Biophys. Acta 178): slight
affinity of the isomerase for the sugar (L-arabinose isomerase [4]; Yamanaka and Wood, 1966): low affinity
substrate quality for L-arabinose-L-ribulose-isomerase [5]: slow
substrate of the isomerase (L-arabinose isomerase [6]): not a substrate of the isomerase
maximum solubility in water [7]: about 70 % by weight
